Data: US20120165310A1, “ETHER DERIVATIVES OF BICYCLIC HETEROARYLS” (NOVARTIS AG, priority 2009, published 2012)

Target: T1, IGF-1R (Homo sapiens, UniProt P08069)
T1 construct: expressed in transfected cells; host or cells: Hek293 (Hek293-IGF1R)
Assay: Cellular IGF-1R assay: capture ELISA (MSD) of receptor phosphorylation in Hek293 cells
Format: cell-based
Conditions: Hek293-IGF1R cells, 1 h pre-incubation, 10 min IGF stimulation, pIGF1R capture ELISA
Summary of the method: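 IC50 from 4-parameter fit of IGF1R phosphorylation, normalised to IGF-stimulated and unstimulated controls, measured by MSD capture ELISA on lysates. Hek293-IGF1R cells in starvation medium got compound 1 h (top 10 μM, 3-fold steps, 0.1% DMSO) before a 10 min pulse of 1.0 ng/μL IGF.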

T1 sequence (P08069 31-1367): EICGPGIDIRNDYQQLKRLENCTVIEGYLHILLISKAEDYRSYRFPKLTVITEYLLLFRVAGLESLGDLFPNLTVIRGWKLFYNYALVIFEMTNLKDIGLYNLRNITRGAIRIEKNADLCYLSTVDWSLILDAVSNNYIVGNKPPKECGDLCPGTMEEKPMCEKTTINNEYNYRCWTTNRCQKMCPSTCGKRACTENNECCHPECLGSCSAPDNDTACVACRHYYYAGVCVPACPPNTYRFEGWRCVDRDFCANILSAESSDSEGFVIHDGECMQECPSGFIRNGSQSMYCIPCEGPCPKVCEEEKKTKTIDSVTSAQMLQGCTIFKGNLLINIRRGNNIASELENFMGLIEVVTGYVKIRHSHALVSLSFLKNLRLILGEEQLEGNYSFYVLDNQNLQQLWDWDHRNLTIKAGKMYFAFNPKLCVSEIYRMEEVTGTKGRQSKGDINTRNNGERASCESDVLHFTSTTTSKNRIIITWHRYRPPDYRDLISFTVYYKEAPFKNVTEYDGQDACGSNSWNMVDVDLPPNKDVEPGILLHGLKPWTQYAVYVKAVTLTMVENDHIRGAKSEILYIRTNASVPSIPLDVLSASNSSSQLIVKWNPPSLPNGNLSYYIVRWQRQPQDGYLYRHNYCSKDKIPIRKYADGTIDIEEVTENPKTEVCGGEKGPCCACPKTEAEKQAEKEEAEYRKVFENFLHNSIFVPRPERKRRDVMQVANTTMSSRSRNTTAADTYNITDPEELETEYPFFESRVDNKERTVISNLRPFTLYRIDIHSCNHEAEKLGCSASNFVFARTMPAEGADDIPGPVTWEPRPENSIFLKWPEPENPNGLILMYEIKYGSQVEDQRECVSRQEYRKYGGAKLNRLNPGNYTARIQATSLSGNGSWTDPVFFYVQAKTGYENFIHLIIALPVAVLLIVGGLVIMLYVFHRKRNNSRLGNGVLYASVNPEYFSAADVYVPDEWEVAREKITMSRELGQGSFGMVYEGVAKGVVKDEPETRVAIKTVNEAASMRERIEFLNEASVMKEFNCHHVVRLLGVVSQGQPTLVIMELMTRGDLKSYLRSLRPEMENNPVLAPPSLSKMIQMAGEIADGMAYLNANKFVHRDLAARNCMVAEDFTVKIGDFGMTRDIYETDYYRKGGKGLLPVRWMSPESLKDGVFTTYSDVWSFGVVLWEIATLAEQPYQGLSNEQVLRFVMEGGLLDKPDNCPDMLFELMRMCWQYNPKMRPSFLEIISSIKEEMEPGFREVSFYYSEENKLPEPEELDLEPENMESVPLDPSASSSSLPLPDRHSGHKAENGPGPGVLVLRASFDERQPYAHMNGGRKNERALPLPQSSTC

Row | Structure (SMILES) | IC50
1 | Nc1ncnc2c1c(-c1cccc(OCC34CCC(CC3)O4)c1)cn2[C@H]1CC[C@@H](NC(=O)C2CC2)CC1 [Example 146, N-((1S,4S)-4-(5-(3-(7-oxabicyclo[2.2.1]heptan-1-ylmethoxy)phenyl)-4-amino-7H-pyrrolo[2,3-d]pyrimidin-7-yl)cyclohexyl)cyclopropanecarboxamide] | 174 nM
2 | CC(C)C(=O)N[C@H]1CC[C@@H](n2cc(-c3cccc(OCC45CCC(CC4)O5)c3)c3c(N)ncnc32)CC1 [Example 147, N-((1S,4S)-4-(5-(3-(7-oxabicyclo[2.2.1]heptan-1-ylmethoxy)phenyl)-4-amino-7H-pyrrolo[2,3-d]pyrimidin-7-yl)cyclohexyl)isobutyramide] | 231 nM
3 | Nc1ncnc2c1c(-c1cccc(OCC34CCC(CC3)O4)c1)cn2[C@H]1CC[C@@H](Cn2ccnc2)CC1 [Example 148, 7-((1S,4S)-4-((1H-imidazol-1-yl)methyl)cyclohexyl)-5-(3-(7-oxabicyclo[2.2.1]heptan-1-ylmethoxy)phenyl)-7H-pyrrolo[2,3-d]pyrimidin-4-amine] | 247 nM
4 | Nc1ncnc2c1c(-c1cccc(OCC34CCC(CC3)O4)c1)cn2C1CCC(O)(CN2CCS(=O)(=O)CC2)CC1 (stereo not shown) [Example 149, 4-{4-Amino-5-[3-(7-oxa-bicyclo[2.2.1]hept-1-ylmethoxy)-phenyl]-pyrrolo[2,3-d]pyrimidin-7-yl}-1-(1,1-dioxo-1λ6-thiomorpholin-4-ylmethyl)-cyclohexanol] | 464 nM
5 | Nc1ncnc2c1c(-c1cccc(OCC34CCC(CC3)O4)c1)cn2C1CCC(c2cnco2)CC1 [Example 150, 5-(3-(7-oxabicyclo[2.2.1]heptan-1-ylmethoxy)phenyl)-7-((1S,4S)-4-(oxazol-5-yl)cyclohexyl)-7H-pyrrolo[2,3-d]pyrimidin-4-amine] | 335 nM
6 | Nc1ncnc2c1c(-c1cccc(OCC34CCC(CC3)O4)c1)cn2[C@H]1CC[C@H](c2cnco2)CC1 [Example 151, 5-(3-(7-oxabicyclo[2.2.1]heptan-1-ylmethoxy)phenyl)-7-((1R,4S)-4-(oxazol-5-yl)cyclohexyl)-7H-pyrrolo[2,3-d]pyrimidin-4-a mine] | 271 nM
7 | Nc1ncnc2c1c(-c1cccc(OC[C@@H]3CCCO3)c1)cn2[C@H]1C[C@@H](CN2CCS(=O)(=O)CC2)C1 [Example 156, 7-[cis-3-(1,1-Dioxo-1-thiomorpholin-4-ylmethyl)-cyclobutyl]-5-{3-[(S)-1-(tetrahydro-furan-2-yl)methoxy]-phenyl}-7H-pyrrolo[2,3-d]pyrimidin-4-ylamine] | 166 nM
8 | [2H]C([2H])(Oc1cccc(-c2cn([C@H]3C[C@@H](CN4CCS(=O)(=O)CC4)C3)c3ncnc(N)c23)c1)C12CCC(CC1)O2 [Example 159, d2-7-[cis-3-(1,1-dioxo-1-thiomorpholin-4-ylmethyl)-cyclobutyl]-5-[3-(7-oxa-bicyclo[2.2.1]hept-1-ylmethoxy)-phenyl]-7H-pyrrolo[2,3-d]pyrimidin-4-ylamine] | 7 to 14 nM
9 | COC(=O)NCC1CC(n2cc(-c3cccc(OCC45CCC(CC4)O5)c3)c3c(N)ncnc32)C1 (stereo not shown) [Example 161, (3-{4-amino-5-[3-(7-oxa-bicyclo[2.2.1]hept-1-ylmethoxy)-phenyl]-pyrrolo[2,3-d]pyrimidin-7-yl}-cyclobutylmethyl)-carbamic acid methyl ester] | 16 nM
10 | CCC(=O)NCC1CC(n2cc(-c3cccc(OCC45CCC(CC4)O5)c3)c3c(N)ncnc32)C1 (stereo not shown) [Example 162, N-(3-{4-amino-5-[3-(7-oxa-bicyclo[2.2.1]hept-1-ylmethoxy)-phenyl]-pyrrolo[2,3-d]pyrimidin-7-yl}-cyclobutylmethyl)-propionamide] | 101 nM
11 | CCNC(=O)NCC1CC(n2cc(-c3cccc(OCC45CCC(CC4)O5)c3)c3c(N)ncnc32)C1 (stereo not shown) [Example 163, 1-(3-{4-amino-5-[3-(7-oxa-bicyclo[2.2.1]hept-1-ylmethoxy)-phenyl]-pyrrolo[2,3-d]pyrimidin-7-yl}-cyclobutylmethyl)-3-ethyl-urea] | 153 nM
12 | CC(C)C(=O)NCC1CC(n2cc(-c3cccc(OCC45CCC(CC4)O5)c3)c3c(N)ncnc32)C1 (stereo not shown) [Example 164, N-(3-{4-amino-5-[3-(7-oxa-bicyclo[2.2.1]hept-1-ylmethoxy)-phenyl]-pyrrolo[2,3-d]pyrimidin-7-yl}-cyclobutylmethyl)-isobutyramide] | 143 nM
13 | [2H]C([2H])([2H])C(=O)NC[C@H]1C[C@@H](n2cc(-c3cccc(OCC45CCC(CC4)O5)c3)c3c(N)ncnc32)C1 [Example 165, d3-N-(3-{4-amino-5-[3-(7-oxa-bicyclo[2.2.1]hept-1-ylmethoxy)-phenyl]-pyrrolo[2,3-d]pyrimidin-7-yl}-cyclobutylmethyl)-acetamide] | 52 nM
14 | [2H]C1([2H])C([2H])([2H])C2(COc3cccc(-c4cn([C@H]5C[C@@H](CN6CCS(=O)(=O)CC6)C5)c5ncnc(N)c45)c3)OC1([2H])C([2H])([2H])C2([2H])[2H] [Example 166, d9-7-[cis-3-(1,1-dioxo-1-thiomorpholin-4-ylmethyl)-cyclobutyl]-5-[3-(7-oxa-bicyclo[2.2.1]hept-1-ylmethoxy)-phenyl]-7H-pyrrolo[2,3-d]pyrimidin-4-ylamine] | 16 nM
15 | CS(=O)(=O)NCC1CC(n2cc(-c3cccc(OCC45CCC(CC4)O5)c3)c3c(N)ncnc32)C1 (stereo not shown) [Example 167, N-(3-{4-amino-5-[3-(7-oxa-bicyclo[2.2.1]hept-1-ylmethoxy)-phenyl]-pyrrolo[2,3-d]pyrimidin-7-yl}-cyclobutylmethyl)-methanesulfonamide] | 167 nM
16 | Nc1ncnc2c1c(-c1cccc(OCC34CCC(CC3)O4)c1)cn2C1CC(CNC(CO)CO)C1 (stereo not shown) [Example 168, 2-[(3-{4-amino-5-[3-(7-oxa-bicyclo[2.2.1]hept-1-ylmethoxy)-phenyl]-pyrrolo[2,3-d]pyrimidin-7-yl}-cyclobutylmethyl)-amino]-propane-1,3-diol] | 109 nM
17 | Nc1ncnc2c1c(-c1cccc(OCC34CCC(CC3)O4)c1)cn2[C@H]1C[C@@]2(CNC(=O)O2)C1 [Example 169, (E)-2-{4-amino-5-[3-(7-oxa-bicyclo[2.2.1]hept-1-ylmethoxy)-phenyl]-pyrrolo[2,3-d]pyrimidin-7-yl}-5-oxa-7-aza-spiro[3.4]octan-6-one] | 66 nM
18 | Nc1ncnc2c1c(-c1cccc(OCC34CCC(CC3)O4)c1)cn2C1CC(N2CCN(CCO)CC2)C1 (stereo not shown) [Example 170, 2-[4-(3-{4-amino-5-[3-(7-oxa-bicyclo[2.2.1]hept-1-ylmethoxy)-phenyl]-pyrrolo[2,3-d]pyrimidin-7-yl}-cyclobutyl)-piperazin-1-yl]-ethanol] | 44 nM
19 | Nc1ncnc2c1c(-c1cccc(OCC34CCC(CC3)O4)c1)cn2[C@H]1C[C@H](N2CC3CC2CN3CCO)C1 (stereo partly drawn) [Example 175, 2-[(trans-3-{4-amino-5[3-(7-oxa-bicyclo[2.2.1]hept-1-ylmethoxy)-phenyl]-pyrrolo[2,3-d]pyrimidin-7-yl}-cyclobutyl)-2,5-diaza-bicyclo[2.2.1]hept-2-yl]-ethanol] | 436 nM
20 | CC(=O)NC[C@H]1C[C@@H](n2cc(-c3cccc(OCC45CCC(CC4)O5)c3)c3c(N)ncnc32)C1 [Example 178] | 47 to 112 nM
21 | CCOC(=O)c1nccn1C[C@H]1C[C@@H](n2cc(-c3cccc(OCC45CCC(CC4)O5)c3)c3c(N)ncnc32)C1 [Example 180] | 57 nM
22 | CN1CCN([C@H]2C[C@@H](c3nc(-c4cccc(OCC56CCC(CC5)O6)c4)c4c(N)nccn43)C2)CC1 [Example 181] | 47 nM
